Experiments:
Format in all cases: cell-based
RS4;11-BCL-2 F104L cells = experiment: Cell proliferation assay, engineered RS4;11 cells stably overexpressing BCL-2 F104L (MTS, 168 h); settings: Homo sapiens, read-out: RS4, 11 BCL2-F104L
Protocol: MTS testing kit was purchased from Promega (Madison, Wis., USA). The RPMI-1640, Fetal bovine serum and Penicillin-Streptomycin were purchased from BI (Biological Industries, Beit Haemek, Israel). Puromycin was purchased from Beyotime (shanghai, China). Dimethyl sulfoxide (DMSO) was purchased from Sigma (St. Louis, Mo., USA). RS4;1l-BCL-2 G101V and RS4;11-BCL-2 F104L cells were cultured in RPM11640 supplemented with 1 ug/mL puromycin, 100 U/mL Penicillin-Streptomycin and 10% FBS.
To investigate whether a compound is able to inhibit the activity of BCL-2 mutation in cells, a mechanism-based assay using engineered cell lines stably overexpressing BCL-2 mutation ([…] and […]) was developed. In this assay, the inhibition of BCL-2 mutation was reflected by the inhibition of cell proliferation of RS4;11-BCL-2 G101V and RS4;11-BCL-2 F104L cells. Cells were plated into 96-well plates at optimized cell density (RS4;11-BCL-2 G101V: 5000 cells/well; RS4;11-BCL-2 F104L: 5000 cells/well). Plates were incubated at 37° C., with 5% CO2 for 4 h. Compounds were serially diluted to the final-concentrations of 10000, 3333.3, 1111.1, 370.4, 123.5, 41.2, 13.7, 4.6 and 1.4 nM and added to the plates. Plates were incubated at 37° C., with 5% CO2 for 168 h. 20 μl MTS was added into each well and the plates were incubated at 37° C., with 5% CO2 exactly for 2 h. The absorbance was measured by a microplate reader at 490 nm. IC50 values were calculated using GraphPad Prism 5.0 software.

Toledo cells = experiment: Cell proliferation assay, Toledo cells (MTS, 72 h); settings: Homo sapiens, Toledo cells, MTS, read-out: Toledo IC50
Method in brief: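 Toledo cells (30000/well, RPMI-1640 with 10% FBS) were preincubated for 4 h. They were then exposed to nine compound concentrations from 10000 to 1.5 nM for 72 h at 37 °C, 5% CO2. MTS was added for 2 h and absorbance read at 490 nm to give IC50.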

DoHH2 cells = experiment: Cell proliferation assay, DoHH2 cells (MTS, 120 h); settings: Homo sapiens, DOHH-2
Protocol: MTS testing kit was purchased from Promega (Madison, Wis., USA). The RPMI-1640, Fetal bovine serum and Penicillin-Streptomycin were purchased from BI (Biological Industries, Beit Haemek, Israel). Dimethyl sulfoxide (DMSO) was purchased from Sigma (St. Louis, Mo., USA). DoHH2 (DSMZ catalog #: ACC47) cells were cultured in RPMI-1640 supplemented with Penicillin-Streptomycin and 10% FBS.
To investigate whether a compound is able to inhibit the activity of BCL-2 in cells, a mechanism-based assay using DoHH2 lines was developed. In this assay, the inhibition of BCL-2 was reflected by the inhibition of cell proliferation of DoHH2 cells. Cells were plated into 96-well plates at the optimized cell density of 5000 cells/well. Plates were incubated at 37° C., with 5% CO2 for 4h. Compounds were serially diluted and added to the plates with the final concentrations of 10000, 3333.3, 1111.1, 370.4, 123.5, 41.2, 13.7, 4.6 and 1.5 nM. Plates were incubated at 37° C., with 5% CO2 for 120 h. 20 μl MTS was added into each well and the plates were incubated at 37° C., with 5% CO2 for exactly 2 h. The absorbance was measured by a microplate reader at 490 nm. IC50 was calculated using GraphPad Prism 5.0 software.

Row | SMILES | IC50 (RS4;11-BCL-2 F104L cells) | IC50 (Toledo cells) | IC50 (DoHH2 cells)
1 | CO[C@@H](C)COc1nc2[nH]cc(F)c2cc1Oc1cc(N2CCC3(CC2)CN([C@H]2CCC[C@H]2c2ccccc2C(C)C)C3)ccc1C(=O)NS(=O)(=O)c1cnc(NC[C@H]2CC[C@](C)(O)CC2)c([N+](=O)[O-])c1 (single isomer, unassigned) [Example A-155a, 2-((3-fluoro-6-((S)-2-methoxypropoxy)-1H-pyrrolo[2,3-b]pyridin-5-yl)oxy)-N-((6-(((1r,4r)-4-hydroxy-4-methylcyclohexyl)methyl)amino)-5-nitropyridin-3-yl)sulfonyl)-4-(2-((1S,2S or 1R,2R)-2-(2-isopropylphenyl)cyclo-pentyl)-2,7-diazaspiro[3.5]nonan-7-yl) benzamide] | 27 nM |  | 
2 | Cc1nc2[nH]cc(F)c2cc1Oc1cc(N2CCC3(CC2)CN([C@H]2CCC[C@H]2c2ccccc2C(C)C)C3)ccc1C(=O)NS(=O)(=O)c1cnc(NC[C@H]2CC[C@](C)(O)CC2)c([N+](=O)[O-])c1 (single isomer, unassigned) [Example A-156, 2-((3-fluoro-6-methyl-1H-pyrrolo[2,3-b]pyridin-5-yl)oxy)-N-((6-((((1r,4r)-4-hydroxy-4-methylcyclohexyl)methyl)amino)-5-nitropyridin-3-yl)sulfonyl)-4-(2-((1S,2S or 1R,2R)-2-(2-isopropylphenyl)cyclo-pentyl)-2,7-diazaspiro[3.5]nonan-7-yl) benzamide] | 16 nM | 1 nM | 
3 | CCc1nc2[nH]cc(F)c2cc1Oc1cc(N2CCC3(CC2)CN([C@H]2CCC[C@H]2c2ccccc2C(C)C)C3)ccc1C(=O)NS(=O)(=O)c1cnc(NC[C@H]2CC[C@](C)(O)CC2)c([N+](=O)[O-])c1 (single isomer, unassigned) [Example A-157, 2-((6-ethyl-3-fluoro-1H-pyrrolo[2,3-b]pyridin-5-yl)oxy)-N-((6-((((1r,4r) 4-hydroxy-4-methylcyclohexyl)methyl)amino)-5-nitropyridin-3-yl)sulfonyl)-4-(2-((1S,2S or 1R,2R)-2-(2-isopropylphenyl)cyclo-pentyl)-2,7-diazaspiro[3.5]nonan-7-yl) benzamide] | 23 nM |  | 
4 | CC(C)c1ccccc1[C@@H]1CCC[C@@H]1N1CC2(CCN(c3ccc(C(=O)NS(=O)(=O)c4cnc(NC[C@H]5CC[C@](C)(O)CC5)c([N+](=O)[O-])c4)c(Oc4cc5cc[nH]c5nc4F)c3)CC2)C1 (single isomer, unassigned) [Example A-158, 2-((6-fluoro-1H-pyrrolo[2,3-b]pyridin-5-yl)oxy)-N-((6-((((1r,4r)-4-hydroxy-4-methylcyclohexyl)methyl)amino)-5-nitropyridin-3-yl)sulfonyl)-4-(2-((1S,2S or 1R,2R)-2-(2-isopropylphenyl)cyclo-pentyl)-2,7-diazaspiro[3.5]nonan-7-yl) benzamide] | 8 nM | 1 nM | 
5 | CCc1nc2[nH]cc(F)c2cc1Oc1cc(N2CCC3(CC2)CN([C@H]2CCC[C@H]2c2ccccc2C(C)C)C3)ccc1C(=O)NS(=O)(=O)c1ccc(NC[C@H]2CC[C@](C)(O)CC2)c([N+](=O)[O-])c1 (single isomer, unassigned) [Example D-235, 2-((6-ethyl-3-fluoro-1H-pyrrolo [2,3-b]pyridin-5-yl)oxy)-N-((4-(((1r,4r)-4-hydroxy-4-methylcyclohexyl)methyl)amino)-3-nitrophenyl) sulfonyl)-4-(2-((1S,2S or 1R,2R)-2-(2-isopropylphenyl)cyclopentyl)-2,7-diazaspiro[3.5] nonan-7-yl)benzamide] | 10 nM |  | 
6 | CCc1nc2[nH]cc(F)c2cc1Oc1cc(N2CCC3(CC2)CN([C@H]2CCC[C@H]2c2ccccc2C(C)C)C3)ccc1C(=O)NS(=O)(=O)c1cc2c(c([N+](=O)[O-])c1)N[C@@H]([C@H]1CC[C@](C)(O)CC1)CO2 (single isomer, unassigned) [Example D-239, 2-((6-ethyl-3-fluoro-1H-pyrrolo [2,3-b]pyridin-5-yl)oxy)-N-(((S)-3-((1r,4S)-4-hydroxy-4-methylcyclohexyl)-5-nitro-3,4-dihydro-2H-benzo[b][1,4]oxazin-7-yl)sulfonyl)-4-(2-((1S,2S or 1R,2R)-2-(2-isopropylphenyl)cyclopentyl)-2,7-diazaspiro[3.5]nonan-7-yl)benzamide] | 5 nM |  | 
7 | CO[C@@H](C)COc1nc2[nH]cc(F)c2cc1Oc1cc(N2CCC3(CC2)CN([C@H]2CCC[C@H]2c2ccccc2C(C)C)C3)ccc1C(=O)NS(=O)(=O)c1cc2c(c([N+](=O)[O-])c1)N[C@@H]([C@H]1CC[C@](C)(O)CC1)CO2 (single isomer, unassigned) [Example D-241a, 2-((3-fluoro-6-((S)-2-methoxypropoxy)-1H-pyrrolo[2,3-b]pyridin-5-yl)oxy)-N-((S)-3-((1r,4S)-4-hydroxy-4-methylcyclohexyl)-5-nitro-3,4-dihydro-2H-benzo[b][1,4]oxazin-7-yl)sulfonyl)-4-(2-((1S,2S or 1R,2R)-2-(2-isopropylphenyl)cyclopentyl)-2,7-diazaspiro[3.5]nonan-7-yl)benzamide] | 11 nM |  | 
8 | CO[C@@H](C)COc1nc2[nH]cc(F)c2cc1Oc1cc(N2CCC3(CC2)CC(N2CCC[C@H]2c2ccccc2C(C)C)C3)ccc1C(=O)NS(=O)(=O)c1cc2c(c([N+](=O)[O-])c1)N[C@@H]([C@H]1CC[C@](C)(O)CC1)CO2 (single isomer, unassigned) [Example D-243a, 2-((3-fluoro-6-((S)-2-methoxypropoxy)-1H-pyrrolo[2,3-b]pyridin-5-yl)oxy)-N-(((S)-3-((1r,4S)-4-hydroxy-4-methylcyclohexyl)-5-nitro-3,4-dihydro-2H-benzo[b][1,4]oxazin-7-yl)sulfonyl)-4-(2-((R or S)-2-(2-isopropylphenyl)pyrrolidin-1-yl)-7-azaspiro[3.5]nonan-7-yl) benzamide] | 13 nM |  | 
9 | CO[C@H](C)COc1nc2[nH]cc(F)c2cc1Oc1cc(N2CCC3(CC2)CC(N2CCC[C@H]2c2ccccc2C(C)C)C3)ccc1C(=O)NS(=O)(=O)c1cc2c(c([N+](=O)[O-])c1)N[C@@H]([C@H]1CC[C@](C)(O)CC1)CO2 (single isomer, unassigned) [Example D-243b, 2-((3-fluoro-6-((R)-2-methoxypropoxy)-1H-pyrrolo[2,3-b]pyridin-5-yl)oxy)-N-(((S)-3-((1r,4S)-4-hydroxy-4-methylcyclohexyl)-5-nitro-3,4-dihydro-2H-benzo[b][1,4]oxazin-7-yl)sulfonyl)-4-(2-((R or S)-2-(2-isopropylphenyl)pyrrolidin-1-yl)-7-azaspiro[3.5]nonan-7-yl) benzamide] | 20 nM |  | 
10 | CCc1nc2[nH]cc(F)c2cc1Oc1cc(N2CCC3(CC2)CC(N2CCC[C@H]2c2ccccc2C(C)C)C3)ccc1C(=O)NS(=O)(=O)c1cc2c(c([N+](=O)[O-])c1)N[C@@H]([C@H]1CC[C@](C)(O)CC1)CO2 (single isomer, unassigned) [Example D-245, 2-((6-ethyl-3-fluoro-1H-pyrrolo [2,3-b]pyridin-5-yl)oxy)-N-(((S)-3-((1r,4S)-4-hydroxy-4-methylcyclohexyl)-5-nitro-3,4-dihydro-2H-benzo[b][1,4]oxazin-7-yl)sulfonyl)-4-(2-((R or S)-2-(2-isopropylphenyl)pyrrolidin-1-yl)-7-azaspiro[3.5]nonan-7-yl)benzamide] | 15 nM |  | 
11 | O=C(NS(=O)(=O)c1cc2c(c([N+](=O)[O-])c1)O[C@H](CN1CCOCC1)CO2)c1ccc(N2CCC3(CC2)CC(N2CCOC[C@H]2c2ccccc2C2CC2)C3)cc1Oc1cnc2[nH]ccc2c1 (single isomer, unassigned) [Example E-41, 2-((1H-pyrrolo [2,3-b]pyridin-5-yl)oxy)-4-(2-((R or S)-3-(2-cyclopropylphenyl)morpholino)-7-azaspiro[3.5]nonan-7-yl)-N-(((R)-2-(morpholinomethyl)-8-nitro-2,3-dihydrobenzo [b][1,4]dioxin-6-yl)sulfonyl) benzamide] |  | 1 nM | ≤ 1 nM

— patent US20230159527A1, “COMPOUNDS AS BCL-2 INHIBITORS” (Fochon Pharmaceuticals, Ltd., priority 2020, published 2023)
